From a melting point compilation (Tetko et al.; mined from patent text by program, amines drawn as free bases though some values may be those of a salt)

| Compound | melting point [°C] |
| --- | --- |
| COc1cc(C(=O)O)ccc1Cc1c(Cl)n(C)c2ccc(CC(C)NC(=O)N(C)C)cc12 (stereo unspecified) | 171 to 173 |
| Nc1nc2ccccc2c2c1nc(CNC(=O)C1CC1)n2CC1(O)CCCCC1 | > 250 |
| Cc1nc(-c2ccc(Cl)cc2)c(CC(Cl)C(=O)O)o1 (stereo unspecified) | 208 to 209 |
| CC(C)(C)C(=O)Oc1ccc(C(=O)NNC(=O)c2occ(-c3ccccc3)c2-c2ccccc2)cc1C#N | 152 to 154 |
| O=C1CNc2cc(Cl)ccc2N1 | 171 to 174 |
| COc1ccc(OCCCCCCI)cc1 | 64 to 66 |
| CC(C)(C)SCc1c(-c2ccc(S(C)(=O)=O)cc2)cnn(-c2ccc(F)cc2)c1=O | 50 to 70 |
| Cc1c(Cc2ccc(C(C)C)cc2)c2c(c(C)c1NC(=O)CC(C)(C)C)CC(C)(CN1CCCC1)O2 (stereo unspecified) | 143 to 144 |
| NCC(=O)N1c2ccccc2N(Cc2ccccc2)C(=O)[C@H]2CCC[C@H]21 (relative stereo) | 163 to 165 |
| COc1ccc(N2C(=O)C(OC)C2c2ccc(C(=O)O)cc2)cc1 (stereo unspecified) | 233 |
| COc1cc(OC)nc(OC(C(=O)O)C2CCc3ccccc32)n1 (stereo unspecified) | 113 to 117 |
| CONCc1nc2c(N)nc3ccccc3c2n1CC1(O)CCC1 | 178 to 181 |
| Cc1cc(C(O)(C(F)(F)F)C(F)(F)F)cc(C)c1OCCN | 167 to 169 |
| Cc1nnc(Sc2ncnc3c(C)csc23)s1 | 144 to 147 |
| Cc1cccc(-c2cncc(OC3SCC(O)C(O)C3O)c2)n1 (stereo unspecified) | 188 |
| CC#CC(C)(C)NC(=O)C(Br)CC (stereo unspecified) | 79 to 81 |
| O=S1(=O)CCN2CCN[C@H](c3ccc(Oc4ccccc4)cc3)C2=N1 | 124 to 125 |
| S=C(NC1CC1)N1CCc2[nH]cnc2C1 | 185 |
| CNc1nc(Cl)c(OC(F)F)c(OC)n1 | 49 to 53 |
| c1ccc(N=C(Nc2ccccc2)c2ccccc2)cc1 | 143 to 144 |
| CCOC(=O)C(C)(C(=O)OCC)C1CCCC(=O)C1 (stereo unspecified) | 129 to 130 |

| Compound | melting point [°C] |
| --- | --- |
| COc1ccc(C(OCC2OC(n3cnc4c(=O)[nH]c(NC(=O)Cc5ccc(Cl)cc5)nc43)CC2O)(c2ccccc2)c2ccc(OC)cc2)cc1 (stereo unspecified) | 150 to 155 |
| CCC(=O)CCC1(C(N)=O)c2ccccc2-c2ccccc21 | 133 to 135 |
| COCc1cc(C(O)CN(Cc2ccccc2)Cc2ccccc2)ccc1OCc1ccccc1 (stereo unspecified) | 52 to 57 |
| CCCCn1cc2c(n1)c(N)nc1ccccc12 | 194 to 195 |
| O=C(Cc1ccc(Cl)cc1)OC(c1ccccc1)c1ccccc1 | 107 to 108 |
| O=C(NNS(=O)(=O)c1ccccc1)c1ccccc1Br | 154 to 156 |
| CCCCCCCCCCOc1ccc2cc(C#CC(C)O)ccc2c1 (stereo unspecified) | 74 to 75 |
| CN(Cc1c2ccccc2cc2ccccc12)C(=O)Nc1ccccc1CCc1cc(C(C)(C)C)c(O)c(C(C)(C)C)c1 | 205 to 206 |
| CCCCn1nnc2cc(C(=O)O)ccc21 | 192 |
| CC(=O)NCCC1Cc2c(C)c(OCc3ccccc3)c(C)c(C)c2O1 (racemic) | 138 to 139 |
| O=S(=O)(c1ccccc1)n1ncc2c(OCCCl)cccc21 | 102 to 104 |
| O=C(O)CON=C(c1ccccc1)c1cc2ccncc2[nH]1 | 68 to 73 |
| COc1cc(CCCC(=O)OC(C)C)ccc1OCc1nc(-c2ccco2)oc1C | 45 to 46 |
| Nc1cc(Cl)c([N+](=O)[O-])cc1CCO | 176 |
| Cc1ccc2[nH]c(=O)sc2c1 | 70 to 71 |
| CC(C)(C)OC(=O)N(C1CCNCC1)C1CCOCC1 | 104 |
| COC(=O)C1Oc2ccc(OC)cc2C(C)(c2ccccc2)O1 (stereo unspecified) | 70 to 71 |
| CCCOc1ccc(NC=C(C(=O)OCC)C(=O)OCC)nc1C | 116 to 118 |
| COC(=O)C1Oc2ccc3c(-c4ccccc4)noc3c2O1 (stereo unspecified) | 78 to 80 |
| CCCCN(CC1Cc2cc(Cl)cc(Cl)c2O1)C(=O)n1ccnc1 (stereo unspecified) | 98 to 100 |
